Test system: Aβ42 production in H4 cells stably transfected with APP751 containing the Swedish mutation (H4 APP751 SWE clone 8.20)
Experiment: Cellular assay for inhibition of Aβ1-42 production (H4 APP751 SWE clone 8.20)
Type: cell-based
Settings: H4 APP751 SWE clone 8.20 cells, 19 h incubation; Table 5B, 6-heterocyclic thiazine examples
Description: Cellular Assays for Inhibition of Aβ1-40 and Aβ1-42 Production
H4 cells stably transfected with APP751 containing the Swedish mutation (H4 APP751 SWE clone 8.20, developed at BMS) were maintained in log phase through twice weekly passage at a 1:20 split. […] Following incubation for 19 h in 5% CO2 at 37° C., plates were briefly centrifuged (1000 rpm, 5 min). A 10 μl aliquot from each well was transferred to a second assay plate (Costar 3709) for Aβ40 measurements. Antibody cocktails were freshly prepared by dilution into 40 mM Tris-HCl (pH 7.4) with 0.2% BSA and added to assay plates. For Aβ42 measurements, antibodies specific for the Aβ42 neoepitope (565, developed at BMS; conjugated to the Wallac reagent (Perkin Elmer)) and the N-terminal sequence of Aβ peptide (26D6, developed at SIBIA; conjugated to APC (Perkin Elmer)) were mixed and 20 μl of the mixture was added to each well of the incubated cell plate yielding a final concentration of 0.8 ng/well 565 and 75 ng/well 26D6. For the Aβ40 measurements, antibodies specific for the Aβ40 neoepitope (TSD, developed at BMS; conjugated to the Wallac reagent (Perkin Elmer)) and 26D6 as described above were mixed and 20 μl of the mixture was added to the 10 μl aliquots which had been removed previously from the cell plate yielding a final concentration of 1.6 ng/well TSD and 17.5 ng/well 26D6. Assay plates containing antibodies were sealed with aluminum foil and incubated overnight at 4° C. Signal was determined using a Viewlux counter (Perkin Elmer) and IC50 values determined using curve fitting in CurveMaster (Excel Fit based).

Structure (SMILES) | IC50
Cc1nc([C@@H]2C[C@@](C)(c3cc(-c4cncnc4)c(F)cc3F)N=C(N)S2)c(C)o1 [Example 41, (4S,6S)-4-(2,4-difluoro-5-(pyrimidin-5-yl)phenyl)-6-(2,5-dimethyloxazol-4-yl)-4-methyl-5,6-dihydro-4H-1,3-thiazin-2-amine] | 233 nM
Cc1nc(C)c([C@@H]2C[C@@](C)(c3cc(-c4cncnc4)c(F)cc3F)N=C(N)S2)o1 [Example 42, (4S,6S)-4-(2,4-difluoro-5-(pyrimidin-5-yl)phenyl)-6-(2,4-dimethyloxazol-5-yl)-4-methyl-5,6-dihydro-4H-1,3-thiazin-2-amine] | 108 nM
Cc1nc(C)c([C@@H]2C[C@@](C)(c3cc(-c4cncnc4)c(F)cc3F)N=C(N)S2)s1 [Example 43, (4S,6S)-4-(2,4-difluoro-5-(pyrimidin-5-yl)phenyl)-6-(2,4-dimethylthiazol-5-yl)-4-methyl-5,6-dihydro-4H-1,3-thiazin-2-amine] | 210 nM
CC#Cc1cncc(-c2cc(Cl)c([C@]3(C)C[C@@H](c4c(C)noc4C)SC(N)=N3)s2)c1 [Example 44, (4S,6S)-4-(3-chloro-5-(5-(prop-1-ynyl)pyridin-3-yl)thiophen-2-yl)-6-(3,5-dimethylisoxazol-4-yl)-4-methyl-5,6-dihydro-4H-1,3-thiazin-2-amine] | 30 nM
Cc1noc(C)c1[C@@H]1C[C@@](C)(c2ccc(F)cc2F)N=C(N)S1 [Example 45, (4S,6S)-4-(2,4-difluorophenyl)-6-(3,5-dimethylisoxazol-4-yl)-4-methyl-5,6-dihydro-4H-1,3-thiazin-2-amine] | 150 nM
Cc1noc(C)c1[C@@H]1C[C@@](C)(c2cc(-c3cnc(F)nc3)c(F)cc2F)N=C(N)S1 [Example 46, (4S,6S)-4-(2,4-difluoro-5-(2-fluoropyrimidin-5-yl)phenyl)-6-(3,5-dimethylisoxazol-4-yl)-4-methyl-5,6-dihydro-4H-1,3-thiazin-2-amine] | 390 nM
CC(=O)c1cc([C@]2(C)C[C@@H](c3c(C)noc3C)SC(N)=N2)c(F)cc1F [Example 47, 1-(5-((4S,6S)-2-amino-6-(3,5-dimethylisoxazol-4-yl)-4-methyl-5,6-dihydro-4H-1,3-thiazin-4-yl)-2,4-difluorophenyl)ethanone] | 220 nM
Cc1noc(CC(C)(C)O)c1[C@@H]1C[C@@](C)(c2ccc(F)cc2F)N=C(N)S1 [Example 48, 1-(4-((4S,6S)-2-amino-4-(2,4-difluorophenyl)-4-methyl-5,6-dihydro-4H-1,3-thiazin-6-yl)-3-methylisoxazol-5-yl)-2-methylpropan-2-ol] | 110 nM
Cc1noc(C)c1[C@@H]1C[C@@](C)(c2cc(F)cc(F)c2)N=C(N)S1 [Example 49, (4S,6S)-4-(3,5-difluorophenyl)-6-(3,5-dimethylisoxazol-4-yl)-4-methyl-5,6-dihydro-4H-1,3-thiazin-2-amine] | 270 nM
Cc1noc(C)c1[C@@H]1C[C@@](C)(c2cc(F)c(F)c(F)c2)N=C(N)S1 [Example 50, (4S,6S)-6-(3,5-dimethylisoxazol-4-yl)-4-methyl-4-(3,4,5-trifluorophenyl)-5,6-dihydro-4H-1,3-thiazin-2-amine] | 840 nM
CC[C@@]1(c2ccc(F)cc2F)C[C@@H](c2c(C)noc2C)SC(N)=N1 [Example 51, (4S,6S)-4-(2,4-difluorophenyl)-6-(3,5-dimethylisoxazol-4-yl)-4-ethyl-5,6-dihydro-4H-1,3-thiazin-2-amine] | 1300 nM
Cc1noc(C)c1[C@@H]1C[C@@](C)(c2cc(-c3cnc(S(C)(=O)=O)nc3)c(F)cc2F)N=C(N)S1 [Example 52, (4S,6S)-4-(2,4-difluoro-5-(2-(methylsulfonyl)pyrimidin-5-yl)phenyl)-6-(3,5-dimethylisoxazol-4-yl)-4-methyl-5,6-dihydro-4H-1,3-thiazin-2-amine] | 820 nM
Cc1noc(C)c1[C@@H]1C[C@@](C)(c2cc(-c3cncc(O)c3)c(F)cc2F)N=C(N)S1 [Example 53, 5-(5-((4S,6S)-2-amino-6-(3,5-dimethylisoxazol-4-yl)-4-methyl-5,6-dihydro-4H-1,3-thiazin-4-yl)-2,4-difluorophenyl)pyridin-3-ol] | 300 nM
COc1ccc(-c2cc([C@]3(C)C[C@@H](c4c(C)noc4C)SC(N)=N3)c(F)cc2F)cn1 [Example 54, (4S,6S)-4-(2,4-difluoro-5-(6-methoxypyridin-3-yl)phenyl)-6-(3,5-dimethylisoxazol-4-yl)-4-methyl-5,6-dihydro-4H-1,3-thiazin-2-amine] | 320 nM
Cc1noc(C)c1[C@@H]1C[C@@](C)(c2cc(-c3cccnc3C#N)c(F)cc2F)N=C(N)S1 [Example 55, 3-(5-((4S,6S)-2-amino-6-(3,5-dimethylisoxazol-4-yl)-4-methyl-5,6-dihydro-4H-1,3-thiazin-4-yl)-2,4-difluorophenyl)picolinonitrile] | 87 nM
COc1ncccc1-c1cc([C@]2(C)C[C@@H](c3c(C)noc3C)SC(N)=N2)c(F)cc1F [Example 56, (4S,6S)-4-(2,4-difluoro-5-(2-methoxypyridin-3-yl)phenyl)-6-(3,5-dimethylisoxazol-4-yl)-4-methyl-5,6-dihydro-4H-1,3-thiazin-2-amine] | 670 nM
COc1ncc(-c2cc([C@]3(C)C[C@@H](c4c(C)noc4C)SC(N)=N3)c(F)cc2F)cc1Cl [Example 57, (4S,6S)-4-(5-(5-chloro-6-methoxypyridin-3-yl)-2,4-difluorophenyl)-6-(3,5-dimethylisoxazol-4-yl)-4-methyl-5,6-dihydro-4H-1,3-thiazin-2-amine] | 380 nM
COc1ncc(-c2cc([C@]3(C)C[C@@H](c4c(C)noc4C)SC(N)=N3)c(F)cc2F)cn1 [Example 58, (4S,6S)-4-(2,4-difluoro-5-(2-methoxypyrimidin-5-yl)phenyl)-6-(3,5-dimethylisoxazol-4-yl)-4-methyl-5,6-dihydro-4H-1,3-thiazin-2-amine] | 120 nM
Cc1noc(C)c1[C@@H]1C[C@@](C)(c2cc(-c3cnccc3C(F)(F)F)c(F)cc2F)N=C(N)S1 [Example 59, (4S,6S)-4-(2,4-difluoro-5-(4-(trifluoromethyl)pyridin-3-yl)phenyl)-6-(3,5-dimethylisoxazol-4-yl)-4-methyl-5,6-dihydro-4H-1,3-thiazin-2-amine] | 670 nM
Cn1nccc1[C@@H]1C[C@@](C)(c2ccc(F)cc2F)N=C(N)S1 [Example 60, (4S,6S)-4-(2,4-difluorophenyl)-4-methyl-6-(1-methyl-1H-pyrazol-5-yl)-5,6-dihydro-4H-1,3-thiazin-2-amine] | 330 nM
Cc1nocc1[C@@H]1C[C@@](C)(c2ccc(F)cc2F)N=C(N)S1 [Example 61, (4S,6S)-4-(2,4-difluorophenyl)-4-methyl-6-(3-methylisoxazol-4-yl)-5,6-dihydro-4H-1,3-thiazin-2-amine] | 300 nM
C[C@@]1(c2ccc(F)cc2F)C[C@@H](c2cncnc2)SC(N)=N1 [Example 62, (4S,6S)-4-(2,4-difluorophenyl)-4-methyl-6-(pyrimidin-5-yl)-5,6-dihydro-4H-1,3-thiazin-2-amine] | 310 nM

Reference: US9475784B2, “4,6-diarylaminothiazines as BACE1 inhibitors and their use for the reduction of beta-amyloid production” (BRISTOL-MYERS SQUIBB COMPANY, priority 2012, dated 2016)
